Reference: patent publication US20260256729A1, “CARBAMOYL PHEN[…] AS TAAR1 AGONISTS” (AXSOME THERAPEUTICS, INC., priority 2022, published 2026)
Read-outs that look alike come from different tables or passages of the source.

Assays:
[1] = system: ventral tegmental area (VTA) dopaminergic neurons; assay: Firing frequency of VTA dopaminergic neurons in acute brain slices (electrophysiology); type: cell-based, mouse; details: for firing frequency of VTA neurons: acute slices from male C57Bl6/J mice, current clamp; for reduction in firing frequency after pre-treatment with D2 receptor antagonist sulpiride: acute slices
Procedure: The firing frequency of ventral tegmental area (VTA) dopaminergic neurons (n=4-8 cells/experiment) in acute slice preparations was recorded using electrophysiology and analyzed. Brain slices (250 μm thickness) containing VTA from male C57Bl6/J mice were prepared using standard procedures. Slices were perfused with artificial cerebrospinal fluid (aCSF) and spontaneous action potentials were recorded from dopaminergic neurons in current clamp conditions using […] and pClamp10 (Axon Instruments; Revel, Proc. Natl. Acad. Sci. USA 108(20):8485-90 (2011)). […] In addition, the reduction in firing frequency by solriamfetol or TAAR1 agonist RO5256390 was antagonized by pre-treatment with the D2 receptor antagonist sulpiride (FIG. 3A-3B).

[2] = biological target: T1, human norepinephrine transporter (hNET) (Homo sapiens, UniProt P23975); design: host or cells: unnamed cell lines or membrane preparations; details: data from published literature (footnote b); cited from earlier work
[3] = system: dopamine transporter deficient (DAT-/-) mice; assay: Open field locomotor activity, DAT-/- mice (hyperlocomotion); type: in vivo, mouse; details: subcutaneous, solriamfetol 10, 30 or 100 mg/kg, amphetamine 2 mg/kg
Procedure: (§1) Open field locomotor activity was assessed using an automated Omnitech Digiscan (AccuScan Instruments, Columbus, OH).

wild type mice = assay: Open field locomotor activity, wild type mice; type: in vivo, mouse; details: subcutaneous, solriamfetol 10, 30 or 100 mg/kg, amphetamine 2 mg/kg
Procedure: as §1

[4] = Binding assay panel for additional targets
[5] = biological target: human dopamine transporter (hDAT) (Homo sapiens, UniProt Q01959); assay: hDAT inhibition, in vitro binding and functional studies
[6] = biological target: T1, human norepinephrine transporter (hNET); assay: hNET inhibition, in vitro binding and functional studies

T1 sequence (P23975 whole entry): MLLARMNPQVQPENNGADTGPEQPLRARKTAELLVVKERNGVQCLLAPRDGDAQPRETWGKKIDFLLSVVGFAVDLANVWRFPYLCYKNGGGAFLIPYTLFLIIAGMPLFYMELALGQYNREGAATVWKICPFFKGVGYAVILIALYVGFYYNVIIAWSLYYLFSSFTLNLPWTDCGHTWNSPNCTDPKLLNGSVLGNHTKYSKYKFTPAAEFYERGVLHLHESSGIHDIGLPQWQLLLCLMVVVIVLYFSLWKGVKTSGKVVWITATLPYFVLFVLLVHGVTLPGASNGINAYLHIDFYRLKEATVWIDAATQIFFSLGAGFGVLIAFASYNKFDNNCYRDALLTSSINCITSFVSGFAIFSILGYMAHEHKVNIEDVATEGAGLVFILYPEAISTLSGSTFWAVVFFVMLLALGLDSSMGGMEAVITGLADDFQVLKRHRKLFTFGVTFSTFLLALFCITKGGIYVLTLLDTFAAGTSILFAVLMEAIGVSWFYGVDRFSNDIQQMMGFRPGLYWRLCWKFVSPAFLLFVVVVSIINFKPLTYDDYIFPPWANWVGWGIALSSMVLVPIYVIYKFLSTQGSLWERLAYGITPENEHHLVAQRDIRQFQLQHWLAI
Sequence of human dopamine transporter (hDAT) (Q01959 whole entry): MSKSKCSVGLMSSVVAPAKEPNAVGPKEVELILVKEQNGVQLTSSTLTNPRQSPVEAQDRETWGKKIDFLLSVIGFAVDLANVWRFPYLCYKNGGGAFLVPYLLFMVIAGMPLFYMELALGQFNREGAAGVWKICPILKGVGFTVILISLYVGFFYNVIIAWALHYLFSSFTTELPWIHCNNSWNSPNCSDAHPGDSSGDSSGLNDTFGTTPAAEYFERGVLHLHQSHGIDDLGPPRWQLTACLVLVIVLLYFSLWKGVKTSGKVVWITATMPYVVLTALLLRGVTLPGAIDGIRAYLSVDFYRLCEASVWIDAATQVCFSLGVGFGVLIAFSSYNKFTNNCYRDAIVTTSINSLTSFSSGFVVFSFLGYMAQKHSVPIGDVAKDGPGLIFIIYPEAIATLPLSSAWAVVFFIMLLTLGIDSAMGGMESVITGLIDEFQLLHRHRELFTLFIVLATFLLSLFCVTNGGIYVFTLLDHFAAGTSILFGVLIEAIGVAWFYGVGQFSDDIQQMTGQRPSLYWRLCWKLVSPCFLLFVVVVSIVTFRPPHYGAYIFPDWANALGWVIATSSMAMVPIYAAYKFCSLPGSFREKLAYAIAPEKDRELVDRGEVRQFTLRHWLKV

| Compound | firing frequency of VTA neurons [1] | reduction in firing frequency after pre-treatment with D2 receptor antagonist sulpiride [1] | hyperlocomotion (total distance traveled in 90 minutes) [3] | locomotor activity (total distance traveled in 90 minutes) (wild type mice) | IC50 [6] | also measured |
| --- | --- | --- | --- | --- | --- | --- |
| CC[C@@H](C[C@H]1COC(N)=N1)c1ccccc1 [RO5256390] | inhibited firing frequency by VTA neurons in a dose-dependent manner | antagonized |  |  |  |  |
| (+)Methamphetamine |  |  |  |  |  | IC50 [2]: 0.0013 µM |
| CC(N)Cc1ccccc1 (centres unmarked) [amphetamine] |  |  | reduced hyperlocomotion | increase locomotor activity |  |  |
| CCN(C[C@H]1COC(N)=N1)c1ccccc1 [ROS166017] |  |  | reduced hyperlocomotion |  |  |  |
| NC(=O)OC[C@H](N)Cc1ccccc1 [Solriamfetol, (R)-2-amino-3-phenylpropyl carbamate] | inhibited firing frequency by VTA neurons in a dose-dependent manner | antagonized | reduced hyperlocomotion | did not increase locomotor activity | 14.4 µM | additional targets in binding assay panel [4]: no additional targets were identified; IC50 [5]: 3.21 µM |
| NC(=O)C[S+]([O-])C(c1ccccc1)c1ccccc1 (centres unmarked) [Modafinil] |  |  |  |  | > 100 µM |  |
